What was measured:
[1] = tested on: prickly sida; assay: Test F preemergence test; format: in vivo, Sida spinosa; conditions: scale 0 to 100
How it was run: (§1)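 Compounds in a non-phytotoxic solvent formulation with surfactant were applied before emergence after sowing, or, for sugarcane, also postemergence. Evaluation was visual, against controls, after 14 to 21 greenhouse days.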

[2] = tested on: bermudagrass; assay: Test F preemergence test; format: in vivo, Cynodon dactylon; conditions: scale 0 to 100
How it was run: as §1

[3] = tested on: kochia; assay: Test C pre-/postemergence test; format: in vivo, Kochia scoparia; conditions: Preemergence; for Kochia plant response rating: 62 g ai/ha, scale 0 to 100; for Plant response rating, Kochia: 31 g ai/ha, scale 0 to 100 (0 no effect, 100 complete control)
How it was run: (§2)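 Seeds were planted and treated preemergence with test chemical in a non-phytotoxic solvent mixture containing surfactant. Postemergence applications of the same formulation went onto plants 2 to 18 cm tall (1- to 4-leaf stage). A dash marks no test result.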

[4] = tested on: green foxtail; assay: Test F preemergence test; format: in vivo, Setaria viridis; conditions: scale 0 to 100
How it was run: as §1

[5] = tested on: itchgrass; assay: Test F preemergence test; format: in vivo, Rottboellia cochinchinensis; conditions: scale 0 to 100
How it was run: as §1

[6] = tested on: pitted morningglory; assay: Test F preemergence test; format: in vivo, Ipomoea lacunosa; conditions: scale 0 to 100
How it was run: as §1

[7] = tested on: purple nutsedge; assay: Test F preemergence test; format: in vivo, Cyperus rotundus; conditions: scale 0 to 100
How it was run: as §1

[8] = tested on: naked crabgrass; assay: Test F preemergence test; format: in vivo, Digitaria nuda; conditions: scale 0 to 100
How it was run: as §1

[9] = tested on: yellow nutsedge; assay: Test C pre-/postemergence test; format: in vivo, Cyperus esculentus; conditions: Preemergence; for Nutsedge, Yellow plant response rating: 62 g ai/ha, scale 0 to 100; for Plant response rating, Nutsedge, Yellow: 31 g ai/ha, scale 0 to 100 (0 no effect, 100 complete control)
How it was run: as §2

[10] = tested on: common ragweed; assay: Test C pre-/postemergence test; format: in vivo, Ambrosia elation; conditions: Preemergence; for Ragweed plant response rating: 62 g ai/ha, scale 0 to 100
How it was run: as §2

[11] = tested on: goosegrass; assay: Test F preemergence test; format: in vivo, Eleusine indica; conditions: scale 0 to 100
How it was run: as §1

[12] = tested on: crabgrass; assay: Test A pre-/postemergence greenhouse test; format: in vivo, Digitaria sanguinalis; conditions: for Crabgrass, Large plant response rating: 0 to 100 scale; for Plant response rating, Crabgrass, Large: 0 to 100 scale where 0 is no effect and 100 is complete control
How it was run: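 Seeds sown in a loam soil–sand blend got a preemergence directed soil spray of compound in a non-phytotoxic solvent mixture containing surfactant. Postemergence sprays of the same formulation went at the same time onto plants 2–10 cm tall at the one- to two-leaf stage. Injury was scored visually against untreated controls after about ten days in the greenhouse.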

[13] = tested on: common ragweed; assay: Test F preemergence test; format: in vivo, Ambrosia elation; conditions: scale 0 to 100
How it was run: as §1

[14] = tested on: broadleaf signalgrass; assay: Test F preemergence test; format: in vivo, Brachiaria platyphylla; conditions: scale 0 to 100; for Plant response rating, Signalgrass: 31 g ai/ha
How it was run: as §1

[15] = Postemergence, 125 g ai/ha, 0 is no effect, 100 is complete control
[16] = Postemergence, 500 g ai/ha, 0 is no effect, 100 is complete control
[17] = Preemergence, 125 g ai/ha, 0 no effect, 100 complete control

Cn1nc(C(F)(F)F)c(CS(=O)(=O)c2cccc[n+]2[O-])c1OCC(F)(F)F [Compound 29]
Prickly Sida plant response rating ([1]; 62 g ai/ha, Preemergence): 95
Prickly Sida plant response rating ([1]; 125 g ai/ha, preemergence): 100
Plant response rating, Prickly Sida ([1]; Preemergence, 16 g ai/ha): 40
Plant response rating, Prickly Sida ([1]; Preemergence, 31 g ai/ha): 95
Bermudagrass plant response rating ([2]; 125 g ai/ha, preemergence): 100
Plant response rating, Bermudagrass ([2]; Preemergence, 16 g ai/ha): 40
Plant response rating, Bermudagrass ([2]; Preemergence, 31 g ai/ha): 90
Kochia plant response rating [3]: 100
Plant response rating, Kochia [3]: 100
Foxtail, Green plant response rating ([4]; 62 g ai/ha, Preemergence): 100
Foxtail, Green plant response rating ([4]; 125 g ai/ha, preemergence): 100
Plant response rating, Foxtail, Green ([4]; Preemergence, 16 g ai/ha): 25
Plant response rating, Foxtail, Green ([4]; Preemergence, 31 g ai/ha): 75
Itchgrass plant response rating ([5]; 62 g ai/ha, Preemergence): 75
Itchgrass plant response rating ([5]; 125 g ai/ha, preemergence): 95
Plant response rating, Itchgrass ([5]; Preemergence, 16 g ai/ha): 0
Plant response rating, Itchgrass ([5]; Preemergence, 31 g ai/ha): 30
Morningglory plant response rating ([6]; 62 g ai/ha, Preemergence): 60
Morningglory plant response rating ([6]; 125 g ai/ha, preemergence): 80
Plant response rating, Morningglory ([6]; Preemergence, 16 g ai/ha): 0
Plant response rating, Morningglory ([6]; Preemergence, 31 g ai/ha): 0
Purple Nutsedge plant response rating ([7]; 125 g ai/ha, preemergence): 75
Plant response rating, Purple Nutsedge ([7]; Preemergence, 16 g ai/ha): 20
Plant response rating, Purple Nutsedge ([7]; Preemergence, 31 g ai/ha): 35
Crabgrass, Naked plant response rating ([8]; 62 g ai/ha, Preemergence): 100
Crabgrass, Naked plant response rating ([8]; 125 g ai/ha, preemergence): 100
Plant response rating, Crabgrass, Naked ([8]; Preemergence, 31 g ai/ha): 80
Nutsedge, Yellow plant response rating [9]: 100
Plant response rating, Nutsedge, Yellow [9]: 80
Ragweed plant response rating [10]: 30
Goosegrass plant response rating ([11]; 62 g ai/ha, Preemergence): 100
Goosegrass plant response rating ([11]; 125 g ai/ha, preemergence): 100
Plant response rating, Goosegrass ([11]; Preemergence, 16 g ai/ha): 65
Plant response rating, Goosegrass ([11]; Preemergence, 31 g ai/ha): 100
Crabgrass, Large plant response rating [12, 15]: 80
Crabgrass, Large plant response rating [12, 16]: 90
Crabgrass, Large plant response rating [12, 17]: 90
Plant response rating, Crabgrass, Large ([12]; Preemergence, 500 g ai/ha): 100
Ragweed plant response rating ([13]; 62 g ai/ha, Preemergence): 70
Ragweed plant response rating ([13]; 125 g ai/ha, preemergence): 80
Plant response rating, Ragweed ([13]; Preemergence, 16 g ai/ha): 0
Plant response rating, Ragweed ([13]; Preemergence, 31 g ai/ha): 40
Signalgrass plant response rating ([14]; 62 g ai/ha, Preemergence): 100
Signalgrass plant response rating ([14]; 125 g ai/ha, preemergence): 100
Plant response rating, Signalgrass ([14]; Preemergence): 50

Cc1cc[n+]([O-])c(S(=O)(=O)Cc2c(C(F)(F)F)nn(C)c2Cl)c1 [Compound 19]
Prickly Sida plant response rating ([1]; 62 g ai/ha, Preemergence): 30
Prickly Sida plant response rating ([1]; 125 g ai/ha, preemergence): 60
Plant response rating, Prickly Sida ([1]; Preemergence, 16 g ai/ha): 0
Plant response rating, Prickly Sida ([1]; Preemergence, 31 g ai/ha): 20
Bermudagrass plant response rating ([2]; 62 g ai/ha, Preemergence): 60
Bermudagrass plant response rating ([2]; 125 g ai/ha, preemergence): 95
Plant response rating, Bermudagrass ([2]; Preemergence, 16 g ai/ha): 0
Plant response rating, Bermudagrass ([2]; Preemergence, 31 g ai/ha): 40
Kochia plant response rating [3]: 100
Plant response rating, Kochia [3]: 0
Foxtail, Green plant response rating ([4]; 62 g ai/ha, Preemergence): 75
Foxtail, Green plant response rating ([4]; 125 g ai/ha, preemergence): 90
Plant response rating, Foxtail, Green ([4]; Preemergence, 16 g ai/ha): 0
Plant response rating, Foxtail, Green ([4]; Preemergence, 31 g ai/ha): 50
Itchgrass plant response rating ([5]; 62 g ai/ha, Preemergence): 25
Itchgrass plant response rating ([5]; 125 g ai/ha, preemergence): 50
Plant response rating, Itchgrass ([5]; Preemergence, 16 g ai/ha): 0
Plant response rating, Itchgrass ([5]; Preemergence, 31 g ai/ha): 0
Morningglory plant response rating ([6]; 62 g ai/ha, Preemergence): 0
Morningglory plant response rating ([6]; 125 g ai/ha, preemergence): 0
Plant response rating, Morningglory ([6]; Preemergence, 16 g ai/ha): 0
Plant response rating, Morningglory ([6]; Preemergence, 31 g ai/ha): 0
Purple Nutsedge plant response rating ([7]; 62 g ai/ha, Preemergence): 60
Purple Nutsedge plant response rating ([7]; 125 g ai/ha, preemergence): 70
Plant response rating, Purple Nutsedge ([7]; Preemergence, 16 g ai/ha): 0
Plant response rating, Purple Nutsedge ([7]; Preemergence, 31 g ai/ha): 0
Crabgrass, Naked plant response rating ([8]; 62 g ai/ha, Preemergence): 100
Crabgrass, Naked plant response rating ([8]; 125 g ai/ha, preemergence): 100
Plant response rating, Crabgrass, Naked ([8]; Preemergence, 16 g ai/ha): 70
Plant response rating, Crabgrass, Naked ([8]; Preemergence, 31 g ai/ha): 70
Nutsedge, Yellow plant response rating [9]: 70
Plant response rating, Nutsedge, Yellow [9]: 40
Ragweed plant response rating [10]: 0
Plant response rating, Ragweed ([10]; 31 g ai/ha, scale 0 to 100 (0 no effect, 100 complete control)): 0
Goosegrass plant response rating ([11]; 62 g ai/ha, Preemergence): 90
Goosegrass plant response rating ([11]; 125 g ai/ha, preemergence): 100
Plant response rating, Goosegrass ([11]; Preemergence, 16 g ai/ha): 0
Plant response rating, Goosegrass ([11]; Preemergence, 31 g ai/ha): 75
Crabgrass, Large plant response rating [12, 15]: 40
Crabgrass, Large plant response rating [12, 16]: 80
Crabgrass, Large plant response rating [12, 17]: 70
Plant response rating, Crabgrass, Large ([12]; Preemergence, 500 g ai/ha): 100
Ragweed plant response rating ([13]; 62 g ai/ha, Preemergence): 50
Ragweed plant response rating ([13]; 125 g ai/ha, preemergence): 80
Plant response rating, Ragweed ([13]; Preemergence, 16 g ai/ha): 0
Plant response rating, Ragweed ([13]; Preemergence, 31 g ai/ha): 25
Signalgrass plant response rating ([14]; 62 g ai/ha, Preemergence): 65
Signalgrass plant response rating ([14]; 125 g ai/ha, preemergence): 95
Plant response rating, Signalgrass ([14]; Preemergence): 60

Reference: patent US20100298141A1, “SUBSTITUTED PYRIDINE N-OXIDE HERBICIDES” (E. I. DU PONT DE NEMOURS AND COMPANY, priority 2007, published 2010)
